Laboratory results as given in ChEMBL document CHEMBL4257522, “Synthesis and preliminary anti-inflammatory and anti-bacterial evaluation of some diflunisal aza-analogs” (Medchemcomm, 2018).
The source made the active and inactive calls. No cut-off for these calls is given here.

Columns and labels:
[1] = test system: Enterococcus faecium; assay: Potentiation of geneticin-induced antibacterial activity against Enterococcus faecium ATCC 700221 assessed as minimum modulatory concentration up to 32 uM measured after 16 hrs in presence of MIC/4 geneticin; type: functional; settings: ATCC 700221, 16 h, read-out: MEC
[2] = test system: Klebsiella pneumoniae; assay: Potentiation of ciprofloxacin-induced antibacterial activity against Klebsiella pneumoniae ATCC 13883 assessed as minimum modulatory concentration up to 32 uM measured after 16 hrs in presence of MIC/4 ciprofloxacin; type: functional; settings: ATCC 13883, 16 h, read-out: MEC
[3] = test system: Streptococcus pyogenes; assay: Toxicity in Streptococcus pyogenes ATCC 14289 up to 32 uM measured after 16 hrs; type: organism-based
[4] = test system: Escherichia coli; assay: Potentiation of ciprofloxacin-induced antibacterial activity against Escherichia coli ATCC 43894 assessed as minimum modulatory concentration up to 32 uM measured after 16 hrs in presence of MIC/4 ciprofloxacin; type: functional; settings: ATCC 43894, 16 h, read-out: MEC
[5] = test system: Macrophage cell line; assay: Induction of IL-8 production in human PBMC-differentiated macrophages after 24 hrs by ELISA; type: cell-based
[6] = test system: Klebsiella pneumoniae; assay: Potentiation of methicillin-induced antibacterial activity against Klebsiella pneumoniae ATCC 13883 assessed as minimum modulatory concentration up to 32 uM measured after 16 hrs in presence of MIC/4 methicillin; type: functional; settings: ATCC 13883, 16 h, read-out: MEC
[7] = test system: Staphylococcus aureus; assay: Toxicity in Staphylococcus aureus ATCC 33592 up to 32 uM measured after 16 hrs; type: organism-based
[8] = test system: Macrophage cell line; assay: Induction of IL-1beta production in human PBMC-differentiated macrophages after 24 hrs by ELISA; type: cell-based
[9] = test system: Klebsiella pneumoniae; assay: Potentiation of erythromycin-induced antibacterial activity against Klebsiella pneumoniae ATCC 13883 assessed as minimum modulatory concentration up to 32 uM measured after 16 hrs in presence of MIC/4 erythromycin; type: functional; settings: ATCC 13883, 16 h, read-out: MEC
[10] = test system: Streptococcus pyogenes; assay: Potentiation of tetracycline-induced antibacterial activity against Streptococcus pyogenes ATCC 14289 assessed as minimum modulatory concentration up to 32 uM measured after 16 hrs in presence of MIC/4 tetracycline; type: functional; settings: ATCC 14289, 16 h, read-out: MEC
[11] = test system: Pseudomonas aeruginosa; assay: Potentiation of methicillin-induced antibacterial activity against Pseudomonas aeruginosa ATCC BAA-2108 assessed as minimum modulatory concentration up to 32 uM measured after 16 hrs in presence of MIC/4 methicillin; type: functional; settings: ATCC BAA-2108, 16 h, read-out: MEC
[12] = test system: Enterococcus faecium; assay: Potentiation of tetracycline-induced antibacterial activity against Enterococcus faecium ATCC 700221 assessed as minimum modulatory concentration up to 32 uM measured after 16 hrs in presence of MIC/4 tetracycline; type: functional; settings: ATCC 700221, 16 h, read-out: MEC
[13] = test system: Enterococcus faecium; assay: Potentiation of ciprofloxacin-induced antibacterial activity against Enterococcus faecium ATCC 700221 assessed as minimum modulatory concentration up to 32 uM measured after 16 hrs in presence of MIC/4 ciprofloxacin; type: functional; settings: ATCC 700221, 16 h, read-out: MEC
[14] = test system: Macrophage cell line; assay: Induction of prostaglandin production in human PBMC-differentiated macrophages after 24 hrs by ELISA; type: cell-based
[15] = test system: Enterococcus faecium; assay: Potentiation of erythromycin-induced antibacterial activity against Enterococcus faecium ATCC 700221 assessed as minimum modulatory concentration up to 32 uM measured after 16 hrs in presence of MIC/4 erythromycin; type: functional; settings: ATCC 700221, 16 h, read-out: MEC
[16] = test system: Escherichia coli; assay: Toxicity in Escherichia coli ATCC 43894 up to 32 uM measured after 16 hrs; type: organism-based
[17] = test system: Macrophage cell line; assay: Cytotoxicity against human PBMC-differentiated macrophages treated for 24 hrs followed by compound washout and measured after 48 hrs by MTT assay; type: cell-based
[18] = test system: Pseudomonas aeruginosa; assay: Potentiation of geneticin-induced antibacterial activity against Pseudomonas aeruginosa ATCC BAA-2108 assessed as minimum modulatory concentration up to 32 uM measured after 16 hrs in presence of MIC/4 geneticin; type: functional; settings: ATCC BAA-2108, 16 h, read-out: MEC
[19] = test system: Klebsiella pneumoniae; assay: Potentiation of geneticin-induced antibacterial activity against Klebsiella pneumoniae ATCC 13883 assessed as minimum modulatory concentration up to 32 uM measured after 16 hrs in presence of MIC/4 geneticin; type: functional; settings: ATCC 13883, 16 h, read-out: MEC
[20] = test system: Pseudomonas aeruginosa; assay: Potentiation of ciprofloxacin-induced antibacterial activity against Pseudomonas aeruginosa ATCC BAA-2108 assessed as minimum modulatory concentration up to 32 uM measured after 16 hrs in presence of MIC/4 ciprofloxacin; type: functional; settings: ATCC BAA-2108, 16 h, read-out: MEC
[21] = test system: Klebsiella pneumoniae; assay: Potentiation of tetracycline-induced antibacterial activity against Klebsiella pneumoniae ATCC 13883 assessed as minimum modulatory concentration up to 32 uM measured after 16 hrs in presence of MIC/4 tetracycline; type: functional; settings: ATCC 13883, 16 h, read-out: MEC
[22] = test system: Macrophage cell line; assay: Antiinflammatory activity in human PBMC-differentiated macrophages assessed as inhibition of LPS-induced prostaglandin production at 0.01 to 10 uM measured after 24 hrs by ELISA; type: functional, cell-based
[23] = test system: Macrophage cell line; assay: Induction of TNFalpha production in human PBMC-differentiated macrophages after 24 hrs by ELISA; type: cell-based
[24] = test system: Staphylococcus aureus; assay: Potentiation of methicillin-induced antibacterial activity against Staphylococcus aureus ATCC 33592 assessed as minimum modulatory concentration up to 32 uM measured after 16 hrs in presence of MIC/4 methicillin; type: functional; settings: ATCC 33592, 16 h, read-out: MEC
[25] = test system: Streptococcus pyogenes; assay: Potentiation of ciprofloxacin-induced antibacterial activity against Streptococcus pyogenes ATCC 14289 assessed as minimum modulatory concentration up to 32 uM measured after 16 hrs in presence of MIC/4 ciprofloxacin; type: functional; settings: ATCC 14289, 16 h, read-out: MEC
[26] = test system: Pseudomonas aeruginosa; assay: Potentiation of erythromycin-induced antibacterial activity against Pseudomonas aeruginosa ATCC BAA-2108 assessed as minimum modulatory concentration up to 32 uM measured after 16 hrs in presence of MIC/4 erythromycin; type: functional; settings: ATCC BAA-2108, 16 h, read-out: MEC
[27] = test system: Pseudomonas aeruginosa; assay: Potentiation of tetracycline-induced antibacterial activity against Pseudomonas aeruginosa ATCC BAA-2108 assessed as minimum modulatory concentration up to 32 uM measured after 16 hrs in presence of MIC/4 tetracycline; type: functional; settings: ATCC BAA-2108, 16 h, read-out: MEC
[28] = test system: Escherichia coli; assay: Potentiation of geneticin-induced antibacterial activity against Escherichia coli ATCC 43894 assessed as minimum modulatory concentration up to 32 uM measured after 16 hrs in presence of MIC/4 geneticin; type: functional; settings: ATCC 43894, 16 h, read-out: MEC
[29] = test system: Streptococcus pyogenes; assay: Potentiation of methicillin-induced antibacterial activity against Streptococcus pyogenes ATCC 14289 assessed as minimum modulatory concentration up to 32 uM measured after 16 hrs in presence of MIC/4 methicillin; type: functional; settings: ATCC 14289, 16 h, read-out: MEC
[30] = test system: Staphylococcus aureus; assay: Potentiation of tetracycline-induced antibacterial activity against Staphylococcus aureus ATCC 33592 assessed as minimum modulatory concentration up to 32 uM measured after 16 hrs in presence of MIC/4 tetracycline; type: functional; settings: ATCC 33592, 16 h, read-out: MEC
[31] = test system: Escherichia coli; assay: Potentiation of methicillin-induced antibacterial activity against Escherichia coli ATCC 43894 assessed as minimum modulatory concentration up to 32 uM measured after 16 hrs in presence of MIC/4 methicillin; type: functional; settings: ATCC 43894, 16 h, read-out: MEC
[32] = test system: Escherichia coli; assay: Potentiation of erythromycin-induced antibacterial activity against Escherichia coli ATCC 43894 assessed as minimum modulatory concentration up to 32 uM measured after 16 hrs in presence of MIC/4 erythromycin; type: functional; settings: ATCC 43894, 16 h, read-out: MEC
[33] = test system: Escherichia coli; assay: Potentiation of tetracycline-induced antibacterial activity against Escherichia coli ATCC 43894 assessed as minimum modulatory concentration up to 32 uM measured after 16 hrs in presence of MIC/4 tetracycline; type: functional; settings: ATCC 43894, 16 h, read-out: MEC
[34] = test system: Enterococcus faecium; assay: Toxicity in Enterococcus faecium ATCC 700221 up to 32 uM measured after 16 hrs; type: organism-based; settings: in vitro

SMILES | minimal effective concentration [1] | minimal effective concentration [2] | Activity [3] | minimal effective concentration [4] | Activity [5] | minimal effective concentration [6] | Activity [7] | Activity [8] | minimal effective concentration [9] | minimal effective concentration [10] | minimal effective concentration [11] | minimal effective concentration [12] | minimal effective concentration [13] | Activity [14] | minimal effective concentration [15] | Activity [16] | IC50 [17] | minimal effective concentration [18] | minimal effective concentration [19] | minimal effective concentration [20] | further results
Cc1nc(-c2ccccc2)cc(C(=O)O)c1O | > 32 µM | > 32 µM | Non-Toxic | > 32 µM | Non-Toxic | > 32 µM | Non-Toxic | Non-Toxic | > 32 µM | > 32 µM | > 32 µM | > 32 µM | > 32 µM | Non-Toxic | > 32 µM | Non-Toxic | 90.8 µM | > 32 µM | > 32 µM | > 32 µM | minimal effective concentration [21]: > 32 µM; inhibition [22]: inactive; Activity [23]: Non-Toxic; minimal effective concentration [24]: 16 µM; minimal effective concentration [25]: > 32 µM; minimal effective concentration [26]: > 32 µM; minimal effective concentration [27]: > 32 µM; minimal effective concentration [28]: > 32 µM; minimal effective concentration [29]: > 32 µM; minimal effective concentration [30]: 16 µM; minimal effective concentration [31]: > 32 µM; minimal effective concentration [32]: > 32 µM; minimal effective concentration [33]: > 32 µM; Activity [34]: Non-Toxic
Cc1nc(-c2ccccc2)c(O)cc1C(=O)O | 8 µM | > 32 µM | Non-Toxic | > 32 µM | Non-Toxic | > 32 µM | Non-Toxic | Non-Toxic | > 32 µM | 4 µM | 16 µM | 1 µM | > 32 µM | Non-Toxic | 4 µM | Non-Toxic | 97.4 µM | > 32 µM | > 32 µM | 4 µM | minimal effective concentration [21]: > 32 µM; inhibition [22]: inactive; Activity [23]: Non-Toxic; minimal effective concentration [24]: 0.5 µM; minimal effective concentration [25]: > 32 µM; minimal effective concentration [26]: 4 µM; minimal effective concentration [27]: > 32 µM; minimal effective concentration [28]: > 32 µM; minimal effective concentration [29]: 4 µM; minimal effective concentration [30]: 4 µM; minimal effective concentration [31]: > 32 µM; minimal effective concentration [32]: > 32 µM; minimal effective concentration [33]: > 32 µM; Activity [34]: Non-Toxic
COc1cccc(-c2cc(C(=O)[O-])c(O)c[n+]2C)c1 | > 32 µM | > 32 µM | Non-Toxic | > 32 µM | Non-Toxic | > 32 µM | Non-Toxic | Non-Toxic | > 32 µM | > 32 µM | > 32 µM | > 32 µM | > 32 µM | Non-Toxic | > 32 µM | Non-Toxic | 96 µM | > 32 µM | > 32 µM | > 32 µM | minimal effective concentration [21]: > 32 µM; inhibition [22]: inactive; Activity [23]: Non-Toxic; minimal effective concentration [24]: > 32 µM; minimal effective concentration [25]: > 32 µM; minimal effective concentration [26]: > 32 µM; minimal effective concentration [27]: > 32 µM; minimal effective concentration [28]: > 32 µM; minimal effective concentration [29]: > 32 µM; minimal effective concentration [30]: > 32 µM; minimal effective concentration [31]: > 32 µM; minimal effective concentration [32]: > 32 µM; minimal effective concentration [33]: > 32 µM; Activity [34]: Non-Toxic
Cc1cc(C(=O)O)c(O)c(Cc2ccccc2)n1 | > 32 µM | > 32 µM | Non-Toxic | > 32 µM | Non-Toxic | > 32 µM | Non-Toxic | Non-Toxic | > 32 µM | 16 µM | > 32 µM | > 32 µM | > 32 µM | Non-Toxic | > 32 µM | Non-Toxic | > 100 µM | > 32 µM | > 32 µM | > 32 µM | minimal effective concentration [21]: > 32 µM; inhibition [22]: inactive; Activity [23]: Non-Toxic; minimal effective concentration [24]: > 32 µM; minimal effective concentration [25]: > 32 µM; minimal effective concentration [26]: > 32 µM; minimal effective concentration [27]: > 32 µM; minimal effective concentration [28]: > 32 µM; minimal effective concentration [29]: > 32 µM; minimal effective concentration [30]: > 32 µM; minimal effective concentration [31]: > 32 µM; minimal effective concentration [32]: > 32 µM; minimal effective concentration [33]: > 32 µM; Activity [34]: Non-Toxic
